From ChEMBL document CHEMBL1201862, “PubChem BioAssay data set” (2004)
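Interpolation was linear, between the two tested concentrations surrounding the appropriate level; five concentrations were tested over 48 hours in 96-well plates. GI50 = concentration required for 50% inhibition of growth.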 The source made the active and inactive calls. Cut-off read from the data, not from the text of the source: active = GI50 up to about 1.1 µM and inactive = higher.

How the values were obtained:
Experiment in all cases: NCI-60 cell line screen, 48 h
COLO 205 = test system: COLO 205
LOX IMVI = test system: LOX IMVI
SK-MEL-5 = test system: SK-MEL-5
SF-268 = test system: SF-268
U-251 = test system: U-251
SN12C = test system: SN12C
RPMI-8226 = test system: RPMI-8226
786-0 = test system: 786-0
CCRF-CEM = test system: CCRF-CEM
A549 = test system: A549
T47D = test system: T47D
NCI-H460 = test system: NCI-H460
UACC-62 = test system: UACC-62
SF-295 = test system: SF-295
MOLT-4 = test system: MOLT-4
MDA-MB-231 = test system: MDA-MB-231
SF-539 = test system: SF-539
OVCAR-8 = test system: OVCAR-8
HT-29 = test system: HT-29
SNB-19 = test system: SNB-19
MDA-MB-435 = test system: MDA-MB-435
RXF 393 = test system: RXF 393
UO-31 = test system: UO-31
SK-MEL-28 = test system: SK-MEL-28
SK-OV-3 = test system: SK-OV-3
TK-10 = test system: TK-10
IGROV-1 = test system: IGROV-1
KM12 = test system: KM12
HCT-15 = test system: HCT-15
A498 = test system: A498
MDA-N = test system: MDA-N
HCC 2998 = test system: HCC 2998
MCF7 = test system: MCF7
HCT-116 = test system: HCT-116
NCI/ADR-RES = test system: NCI/ADR-RES
Hs-578T = test system: Hs-578T
NCI-H522 = test system: NCI-H522
Malme-3M = test system: Malme-3M
SNB-75 = test system: SNB-75
CAKI-1 = test system: CAKI-1
HL-60 = test system: HL-60
DU-145 = test system: DU-145
OVCAR-5 = test system: OVCAR-5
SW-620 = test system: SW-620
PC-3 = test system: PC-3
M14 = test system: M14
K562 = test system: K562
SK-MEL-2 = test system: SK-MEL-2
NCI-H226 = test system: NCI-H226
OVCAR-3 = test system: OVCAR-3
ACHN = test system: ACHN
UACC-257 = test system: UACC-257
BT-549 = test system: BT-549
HOP-62 = test system: HOP-62
NCI-H23 = test system: NCI-H23

Measured: GI50

CC(C)C(=O)CC(Sc1ccc(N)cc1)c1ccccc1 (stereo not given)
27.4 µM: HCT-15
inactive: COLO 205 33.2 µM | LOX IMVI 16.6 µM | SK-MEL-5 20.4 µM | SF-268 28.5 µM | U-251 16.6 µM | SN12C 28.1 µM | RPMI-8226 17.4 µM | 786-0 28.8 µM | CCRF-CEM 17.1 µM | A549 28.1 µM | T47D 21.9 µM | NCI-H460 23.2 µM | UACC-62 19 µM | SF-295 25.6 µM | MOLT-4 25.1 µM | MDA-MB-231 22.3 µM | SF-539 30.5 µM | OVCAR-8 25.6 µM | HT-29 27.5 µM | SNB-19 48.5 µM | MDA-MB-435 13.6 µM | RXF 393 25.9 µM | UO-31 29.2 µM | SK-MEL-28 30.8 µM | SK-OV-3 26.4 µM | TK-10 69.8 µM | IGROV-1 44.1 µM | KM12 22.5 µM | A498 36.2 µM | MDA-N 16 µM | HCC 2998 24.7 µM | MCF7 18.2 µM | HCT-116 13.3 µM | NCI/ADR-RES 33.7 µM | Hs-578T 21.7 µM | NCI-H522 15.8 µM | Malme-3M 35.1 µM | SNB-75 32.6 µM | CAKI-1 34.3 µM | HL-60 16.2 µM | DU-145 25.4 µM | OVCAR-5 29.4 µM | SW-620 16.9 µM | PC-3 35.4 µM | M14 30.4 µM | K562 25.4 µM | SK-MEL-2 23.3 µM | NCI-H226 46.5 µM | OVCAR-3 27.6 µM | ACHN 20 µM | UACC-257 33.6 µM | BT-549 33.7 µM | HOP-62 37.1 µM | NCI-H23 21.9 µM
